Experimental data reported in ChEMBL document CHEMBL1149208, “Synthesis of 1alpha,25-dihydroxyvitamin D3-26,23-lactams (DLAMs), a novel series of 1 alpha,25-dihydroxyvitamin D3 antagonist” (Bioorg Med Chem Lett, 2004).

Legend:
Vitamin D3 receptor = target: T1, Vitamin D3 receptor (Gallus gallus, UniProt O42392); experiment: In vitro relative binding affinity for chick intestinal vitamin D3 receptor compared to [3H]1
T1 sequence (O42392 whole entry): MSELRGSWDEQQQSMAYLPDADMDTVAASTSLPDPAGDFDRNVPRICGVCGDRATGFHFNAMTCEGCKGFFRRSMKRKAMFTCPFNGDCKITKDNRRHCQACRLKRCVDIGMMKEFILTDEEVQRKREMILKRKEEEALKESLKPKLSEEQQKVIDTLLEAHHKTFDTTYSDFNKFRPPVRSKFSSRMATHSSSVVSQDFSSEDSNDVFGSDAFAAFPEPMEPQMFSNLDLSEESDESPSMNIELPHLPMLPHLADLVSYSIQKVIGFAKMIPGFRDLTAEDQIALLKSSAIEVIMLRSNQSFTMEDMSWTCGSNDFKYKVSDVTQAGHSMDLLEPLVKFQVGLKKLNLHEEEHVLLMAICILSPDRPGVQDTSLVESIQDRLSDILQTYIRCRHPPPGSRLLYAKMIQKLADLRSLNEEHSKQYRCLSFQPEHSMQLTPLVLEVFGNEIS

HL-60 = experiment: Inhibitory activity on HL-60 cell differentiation induced by 10e-8 M of compound 1 (1,25-D3); parameters: scale not given: the % may be the effect or the level left

Row | IC50 (Vitamin D3 receptor) [nM] | Structure (SMILES) | Activity (HL-60) [%]
1 | > 100 | C=C1/C(=C/C=C2/CCC[C@]3(C)[C@@H]([C@H](C)C[C@@H]4C[C@](C)(O)C(=O)N4C)CC[C@@H]23)C[C@@H](O)C[C@@H]1O (stereo in doubt; form 1) | 
2 | 1.9 | C=C1/C(=C/C=C2/CCC[C@@]3(C)C2CCC3[C@H](C)C[C@H]2C[C@](C)(O)C(=O)N2Cc2ccccc2)C[C@@H](O)C[C@@H]1O (stereo partly drawn) | 47
3 | 50 | C=C1/C(=C/C=C2/CCC[C@]3(C)[C@@H]([C@H](C)C[C@@H]4C[C@@](C)(O)C(=O)N4C)CC[C@@H]23)C[C@@H](O)C[C@@H]1O | 
4 | 10.2 | C=C1/C(=C/C=C2/CCC[C@@]3(C)C2CCC3[C@H](C)C[C@H]2C[C@](C)(O)C(=O)N2C)C[C@@H](O)C[C@@H]1O (stereo partly drawn) | 12
5 | 30 | C=C1/C(=C/C=C2/CCC[C@@]3(C)C2CCC3[C@H](C)C[C@@H]2C[C@@](C)(O)C(=O)N2Cc2ccccc2)C[C@@H](O)C[C@@H]1O (stereo partly drawn) | 
6 | > 100 | C=C1/C(=C/C=C2/CCC[C@]3(C)[C@@H]([C@H](C)C[C@@H]4C[C@](C)(O)C(=O)N4C)CC[C@@H]23)C[C@@H](O)C[C@@H]1O (stereo in doubt; form 2) | 
